According to US7250410B2, “Cyclic nucleotide phosphodiesterase inhibitors, preparation and uses thereof” (Via Pharmaceuticals, Inc., priority 2001, dated 2007):
Values joined by “and” are separate entries in the source; they are usually repeats but may differ in a detail not shown here. Identical values can stand only once.

Target: PDE4
Experiment: Inhibition of PDE4, radioenzymatic phosphodiesterase assay
Assay type: biochemical, bovine
Details: for IC50: 1 μM cyclic AMP; for PDE4 percentage inhibition at 10 μM: compound at 10 μM
Experimental: A 3 g segment of bovine aortic media cut into pieces with scissors was homogenized with an ultra-turrax then a potter glass/glass homogenizer in 7 volumes by weight of buffer A containing a protease inhibitor cocktail (20 mM Tris-HCl, 0.25 M saccharose, 2 mM magnesium acetate, 1 mM dithiothreitol, 5 mM EGTA, 2000 U/ml aprotinin, 10 mg/l leupeptin and 10 mg/l soya trypsic inhibitor). The homogenizate was centrifuged at 105,000 g for 1 hour. […] The column was washed until there was no detectable absorption at 280 nm, then eluted with a linear gradient of NaCl (0–0.5 M) in buffer B. 3-ml fractions were collected and enzyme activity was determined under the conditions described hereinafter to localize the different enzymes PDE1, PDE3, PDE4 and PDE5, which were aliquoted and frozen at −80° C.
The nucleoside formed was separated from the nucleotides by anion exchange chromatography. Nucleoside radioactivity was determined by liquid scintillation counting.

CCOc1cc2c(cc1OC)C(c1ccccc1)=NC(Cc1ccccc1C#N)C(=O)N2C (centres unmarked) [IIdg, 2-[(8-ethoxy-7-methoxy-1-methyl-2-oxo-5-phenyl-2,3-dihydro-1H-1,4-benzodiazepin-3-yl)methyl]benzonitrile]
IC50 (Table 3, formula (II)): 1100 nM

CCN1C(=O)C(Cc2cccc(C(F)(F)F)c2)N=C(c2ccccc2)c2cc(OC)c(OC)cc21 (centres unmarked) [IIdb, 1-ethyl-7,8-dimethoxy-5-phenyl-3-[3-(trifluoromethyl)benzyl]-1,3-dihydro-2H-1,4-benzodiazepin-2-one]
IC50 (Table 3, formula (II)): 23000 nM

CCN1N=C(c2ccccc2)c2cc(OC)c(OC)cc2CC1=O [IIIag, 3-ethyl-7,8-dimethoxy-1-phenyl-3,5-dihydro-4H-2,3-benzodiazepin-4-one]
PDE4 percentage inhibition at 10 μM (Table 1, formula (III)): 36%

COc1cc2c(cc1OC)N(C)C(=O)CN=C2c1cccs1 [IIak, 7,8-dimethoxy-1-methyl-5-(2-thienyl)-1,3-dihydro-1,4-benzodiazepin-2-one]
IC50 (Table 3, formula (II)): 16000 nM

COc1cc2c(cc1OC)C(c1ccccc1)=NC(Cc1c[nH]cn1)C(=O)N2 (centres unmarked) [XXIIar, 7,8-dimethoxy-3-(1H-imidazol-4-ylmethyl)-5-phenyl-1,3-dihydro-2H-1,4-benzodiazepin-2-one]
PDE4 percentage inhibition at 10 μM (Table 2, formula (XXII)): 49.3%

COc1cc2c(cc1OC)C(c1ccc(-c3cccc(C(C)=O)c3)cc1)=NN(C)C(=O)C2 [IIIak, 1-[4-(3-acetylphenyl)phenyl]-7,8-dimethoxy-3-methyl-3,5-dihydro-4H-2,3-benzodiazepin-4-one]
IC50 (Table 1, formula (III)): 1800 nM

CCCCN(Cc1ccccc1)C(=O)OC1N=C(c2ccccc2)c2cc(OC)c(OC)cc2NC1=O [XXIIav, (7,8-dimethoxy-5-phenyl-2-oxo-2,3-dihydro-1H-1,4-benzodiazepin-3-yl)benzyl(S)-butylcarbamate]
PDE4 percentage inhibition at 10 μM (Table 2, formula (XXII)): 23%

CCOc1cc2c(cc1OC)NC(=O)CN=C2c1ccccc1 [XXIIbc, 5-phenyl-7-ethoxy-8-methoxy-1,3-dihydro-2H-1,4-benzodiazepin-2-one]
PDE4 percentage inhibition at 10 μM (Table 2, formula (XXII)): 10%

COc1cc2c(cc1OC)N(C)C(=O)CN=C2C#Cc1ccccc1 [IIat, 7,8-dimethoxy-1-methyl-5-(2-phenylethynyl)-1,3-dihydro-2H-1,4-benzodiazepin-2-one]
PDE4 percentage inhibition at 10 μM (Table 3, formula (II)): 3.9%

COc1ccc2c(c1)NC(=O)CN=C2c1ccccc1 [XXIIan, 8-methoxy-5-phenyl-1,3-dihydro-2H-1,4-benzodiazepin-2-one]
PDE4 percentage inhibition at 10 μM (Table 2, formula (XXII)): 12.1%

CCN1C(=O)C(Cc2ccc(Cl)cc2)N=C(c2ccccc2)c2cc(OC)c(OC)cc21 (centres unmarked) [IIcn, 3-(4-chlorobenzyl)-1-ethyl-7,8-dimethoxy-5-phenyl-1,3-dihydro-2H-1,4-benzodiazepin-2-one]
PDE4 percentage inhibition at 10 μM (Table 3, formula (II), 10 µM): 45%

COc1cc2c(cc1OC)C(c1ccccc1Br)=NCC(=O)N2 [XXIIal, 5-(2-bromophenyl)-7,8-dimethoxy-1,3-dihydro-2H-1,4-benzodiazepin-2-one]
PDE4 percentage inhibition at 10 μM (Table 2, formula (XXII)): 23.9%

O=C1CN=C(c2cccc(C(F)(F)F)c2)c2cc(I)ccc2N1 [XXIIac, 7-iodo-5-[3-(trifluoromethyl)phenyl]-1,3-dihydro-2H-1,4-benzodiazepin-2-one]
PDE4 percentage inhibition at 10 μM (Table 2, formula (XXII)): 35%

CCN1C(=O)C(Cc2cc(Cl)ccc2Cl)N=C(c2ccccc2)c2cc(OC)c(OC)cc21 (centres unmarked) [IIdi, 3-(2,5-dichlorobenzyl)-7,8-dimethoxy-1-ethyl-5-phenyl-1,3-dihydro-2H-1,4-benzodiazepin-2-one]
IC50 (Table 3, formula (II)): 8150 nM

COc1ccc(C2=NCC(=O)N(C)c3cc(OC)c(OC)cc32)cc1OC [IIab, 7,8-dimethoxy-5-(3,4-dimethoxyphenyl)-1-methyl-1,3-dihydro-1,4-benzodiazepin-2-one]
PDE4 percentage inhibition at 10 μM (Table 3, formula (II)): 38%

CCOc1cc2c(cc1OCC)C(c1ccccc1)=NC(Cc1ccccc1)C(=O)N2 (centres unmarked) [XXIIaj, 3-benzyl-7,8-diethoxy-5-phenyl-1,3-dihydro-2H-1,4-benzodiazepin-2-one]
IC50 (Table 2, formula (XXII)): 4400 nM

CCN1C(=O)CN=C(c2ccc(C#Cc3ccccc3)cc2)c2cc(OC)c(OC)cc21 [IIbr, 1-ethyl-7,8-dimethoxy-5-[4-(phenylethynyl)phenyl]-1,3-dihydro-2H-1,4-benzodiazepin-2-one]
IC50 (Table 3, formula (II)): 6600 nM and 3800 nM

COc1cc2c(cc1OC)N(C)C(=O)CN=C2c1ccco1 [IIah, 5-(2-furyl)-7,8-dimethoxy-1-methyl-1,3-dihydro-1,4-benzodiazepin-2-one]
PDE4 percentage inhibition at 10 μM (Table 3, formula (II)): 36%

COc1cc2c(cc1OC)N(C)C(=O)CN=C2CCc1ccccc1 [IIaz, 7,8-dimethoxy-1-methyl-5-(2-phenylethyl)-1,3-dihydro-2H-1,4-benzodiazepin-2-one]
PDE4 percentage inhibition at 10 μM (Table 3, formula (II)): 6.9%

COc1cc2c(cc1OC)C(c1ccccc1)=NC(Cc1c[nH]c3ccccc13)C(=O)N2 (centres unmarked) [XXIIas, 7,8-dimethoxy-3-(1H-indol-3-ylmethyl)-5-phenyl-1,3-dihydro-2H-1,4-benzodiazepin-2-one]
PDE4 percentage inhibition at 10 μM (Table 2, formula (XXII)): 41.3%

COc1ccc2c(c1)N(C)C(=O)CN=C2c1ccccc1 [IIdm, 8-methoxy-1-methyl-5-phenyl-1,3-dihydro-2H-1,4-benzodiazepin-2-one]
PDE4 percentage inhibition at 10 μM (Table 3, formula (II)): 16%

COc1cc2c(cc1OC)N(C)C(=O)CN=C2c1ccc2cc(OCc3ccccc3)ccc2c1 [IIao, 5-(6-benzyloxy-2-naphthyl)-7,8-dimethoxy-1-methyl-1,3-dihydro-1,4-benzodiazepin-2-one]
IC50 (Table 3, formula (II)): 1600 nM

COc1cc2c(cc1OC)N(C)C(=O)CN=C2N1CCCCC1 [IIar, 7,8-dimethoxy-1-methyl-5-(piperidin-1-yl)-1,3-dihydro-1,4-benzodiazepin-2-one]
PDE4 percentage inhibition at 10 μM (Table 3, formula (II)): 0%

COc1cc2c(cc1OC)C(c1ccc(-c3ccc(C)cc3)cc1)=NN(C)C(=O)C2 [IIIas, 7,8-dimethoxy-3-methyl-1-[4-(4-methylphenyl)phenyl]-3,5-dihydro-4H-2,3-benzodiazepin-4-one]
IC50 (Table 1, formula (III)): 2900 nM

COc1cc2c(cc1OC)C(c1ccc(-c3cc(C(F)(F)F)cc(C(F)(F)F)c3)cc1)=NN(C)C(=O)C2 [IIIaw, 1-{4-[3,5-bis-(trifluoromethyl)phenyl]phenyl}-7,8-dimethoxy-3-methyl-3,5-dihydro-4H-2,3-benzodiazepin-4-one]
IC50 (Table 1, formula (III)): 16000 nM

COc1cc2c(cc1OC)N(C)C(=O)CN=C2N1CCc2ccccc2C1 [IIav, 7,8-dimethoxy-1-methyl-5-(N-tetrahydro-1,2,3,4-isoquinolyl)-1,3-dihydro-2H-1,4-benzodiazepin-2-one]
PDE4 percentage inhibition at 10 μM (Table 3, formula (II)): 15%

CCN1C(=O)CN=C(c2ccc(C#CCNC(=O)OC(C)(C)C)cc2)c2cc(OC)c(OC)cc21 [IIbo, tert-butyl 3-[4-(1-ethyl-7,8-dimethoxy-2-oxo-2,3-dihydro-1H-1,4-benzodiazepin-5-yl)phenyl]prop-2-ynylcarbamate]
IC50 (Table 3, formula (II)): 2920 nM

CCN1C(=O)C(Cc2ccccc2[N+](=O)[O-])N=C(c2ccccc2)c2cc(OC)c(OC)cc21 (centres unmarked) [IIbh, 7,8-dimethoxy-1-ethyl-3-(2-nitrobenzyl)-5-phenyl-1,3-dihydro-2H-1,4-benzodiazepin-2-one]
IC50 (Table 3, formula (II)): 2400 nM

CCN1C(=O)CN=C(c2ccc(C#CCOCc3ccccc3)cc2)c2cc(OC)c(OC)cc21 [IIbn, 5-{4-[3-(benzyloxy)prop-1-ynyl]phenyl}-1-ethyl-7,8-dimethoxy-1,3-dihydro-2H-1,4-benzodiazepin-2-one]
IC50 (Table 3, formula (II)): 2950 nM

COc1cc2c(cc1OC)C(c1ccccc1)=NC(c1ccccc1CCNC(C)=O)C(=O)N2 (centres unmarked) [IIcm, N-[2-(7,8-dimethoxy-2-oxo-5-phenyl-2,3-dihydro-1H-1,4-benzodiazepin-3-yl)benzyl]methylacetamide]
IC50 (Table 3, formula (II)): 1900 nM

CCN1C(=O)CN=C(c2cccc(C#Cc3ccccc3)c2)c2cc(OC)c(OC)cc21 [IIbw, 1-ethyl-7,8-dimethoxy-5-[3-(phenylethynyl)phenyl]-1,3-dihydro-2H-1,4-benzodiazepin-2-one]
PDE4 percentage inhibition at 10 μM (Table 3, formula (II)): 46.1%

COc1cc2c(cc1OC)C(c1ccc(I)cc1)=NN(C)C(=O)C2 [IIIah, 1-(4-iodophenyl)-7,8-dimethoxy-3-methyl-3,5-dihydro-4H-2,3-benzodiazepin-4-one]
IC50 (Table 1, formula (III)): 3100 nM

COc1cc2c(cc1OC)C(c1ccc(-c3cccc(C(F)(F)F)c3)cc1)=NN(C)C(=O)C2 [IIIap, 1-[4-[3-(trifluoromethyl)phenyl]phenyl]-7,8-dimethoxy-3-methyl-3,5-dihydro-4H-2,3-benzodiazepin-4-one]
IC50 (Table 1, formula (III)): 1900 nM

CCN1C(=O)C(Cc2ccccc2N)N=C(c2ccccc2)c2cc(OC)c(OC)cc21 (centres unmarked) [IIca, 7,8-dimethoxy-1-ethyl-3-(2-aminobenzyl)-5-phenyl-1,3-dihydro-2H-1,4-benzodiazepin-2-one]
IC50 (Table 3, formula (II)): 2500 nM

COc1cc2c(cc1OC)N(C)C(=O)CN=C2c1ccc(F)cc1 [IIad, 7,8-dimethoxy-5-(4-fluorophenyl)-1-methyl-1,3-dihydro-2H-1,4-benzodiazepin-2-one]
PDE4 percentage inhibition at 10 μM (Table 3, formula (II)): 23%

COc1ccc2c(c1)C(c1ccccc1)=NCC(=O)N2 [XXIIao, 7-methoxy-5-phenyl-1,3-dihydro-2H-1,4-benzodiazepin-2-one]
PDE4 percentage inhibition at 10 μM (Table 2, formula (XXII)): 11.5%

CCCN1C(=O)CN=C(c2ccccc2)c2cc(OC)c(OC)cc21 [IIbe, 7,8-dimethoxy-5-phenyl-1-propyl-1,3-dihydro-2H-1,4-benzodiazepin-2-one]
PDE4 percentage inhibition at 10 μM (Table 3, formula (II)): 34.7%

CCN1C(=O)C(Cc2ccc(Cl)cc2)N=C(c2ccccc2)c2cc(OC)c(OC)cc21 (centres unmarked) [IIbq, 3-(4-chlorobenzyl)-1-ethyl-7,8-dimethoxy-5-phenyl-1,3-dihydro-2H-1,4-benzodiazepin-2-one]
PDE4 percentage inhibition at 10 μM (Table 3, formula (II), 10 µM): 33.8%
